Assay results taken from PMC11662004 (Communications Chemistry, 2024).
“And” between values parts separate entries of the source, which are not always exact repeats. Identical values can stand only once. Like-named read-outs stand apart in the source and are kept apart here.

Tests used:
NgTet1 [1] = target: T1, NgTet1 (Naegleria gruberi, UniProt D2W6T1); experiment: biochemical; settings: for potency change in the presence of non-substrate 5HC DNA: uncoupled 2OG turnover; for IC50: 5 μM NgTet1, 50 μM 2OG
T1 construct: His6-tagged full-length Naegleria gruberi NgTet1 (321 a. a.) protein with a thrombin cleavage site; made in house; host or cells: E. coli BL21(DE3)
T1 sequence (D2W6T1 1-321): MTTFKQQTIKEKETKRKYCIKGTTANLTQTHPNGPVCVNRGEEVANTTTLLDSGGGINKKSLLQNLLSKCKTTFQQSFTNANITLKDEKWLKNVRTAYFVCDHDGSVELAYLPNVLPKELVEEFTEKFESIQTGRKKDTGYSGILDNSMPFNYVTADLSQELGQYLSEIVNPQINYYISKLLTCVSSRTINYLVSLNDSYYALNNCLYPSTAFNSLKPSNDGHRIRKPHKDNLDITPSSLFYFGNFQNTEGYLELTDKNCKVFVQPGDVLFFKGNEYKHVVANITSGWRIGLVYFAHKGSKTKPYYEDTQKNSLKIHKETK
Description: (§1) Activity was normalised against reactions containing vehicle (DMSO). […] AS data shown as the mean of three experimental replicates (n = 3; mean ± SD); ^1H NMR data plotted from two independent replicates (n = 2); tabulated data reported as the mean of two and three independent replicates for ^1H NMR and AS, respectively (n = 2–3, SD reported for n = 3). N. d.: not determined; AS: AlphaScreen.
All ^1H NMR spectra were recorded at 25 °C using D2O as a reference for internal deuterium lock on a Bruker Avance III 700 MHz equipped with an inverse TCI cryoprobe in 3 or 5 mm diameter tubes with a total sample volume of 160 or 565 μL, respectively. The water signal was reduced using Perfect Echo excitation sculpting suppression. Chemical shifts are reported in ppm relative to D2O (δH = 4.70 ppm).
NgTet1 was pre-incubated with inhibitor dilution series in DMSO-d6 at room temperature for 10 min (50 mM Tris-d11 [pH 7.5], 2% v/v DMSO-d6). Reactions were initiated by the addition of appropriate cofactors and DNA. […] The reactions were quenched by the addition of 9 mM NOG and 9 mM ZnCl2 in 90 mM Tris-d11 [pH 7.5] (20 μL) within the enzyme linear activity window (determined in Figure. S10). Samples were transferred to NMR tubes and subjected to ^1H NMR analysis. Data were processed as described above. Inhibition data was normalised to reactions containing vehicle only (1% v/v DMSO-d6) and fitted using “log(inhibitor) vs. response - Variable slope (four parameters)” non-linear regression model on GraphPad Prism 5.
Activity was normalised against reactions containing vehicle only (100% activity). Data is shown as the mean of 2 independent replicates (n = 2; […]
Fig. S10 Determination of linear NgTet1 enzymatic activity windows for inhibitor characterisation. a 1H NMR succinate detection time courses with no DNA, 5HC DNA (double- […]
complementary 5'-ACC AC5mC GGT GGT-3'). b AlphaScreen 5hmC detection time course using […]
courses shown. 1H NMR reaction conditions: 5 μM NgTet1, 2 mM sodium L-ascorbate, 100 μM […]
v/v D2O. DNA was added to a final concentration of 20 μM of double-stranded DNA. […]

NgTet1 [2] = target: T1, NgTet1; experiment: biochemical; settings: for normalised activity, %: AlphaScreen
Description: (Fig. 5a), were screened for inhibitory activity against NgTet1.
as §1
Compounds in DMSO (100 nL) were pre-dispensed in a logarithmically linear concentration gradient onto 384-well ProxiPlates using an Echo® 550 acoustic liquid handler (Labcyte). NgTet1 was pre-incubated with the inhibitor dilution series in DMSO at room temperature for 10 min. Reactions were initiated by the addition of appropriate cofactors and DNA. […] The reactions were quenched by the addition of 30 mM EDTA (pH 4.2), 358 mM NaCl (5 μL) within the enzyme linear activity window (determined in Fig. S10). Concurrently, a mixture containing the anti-^5hmC antibody (1:2000 dilution) and AlphaScreen beads (1:62.5 dilution) in assay buffer was prepared and incubated at room temperature for 30 min. The AlphaScreen bead/antibody mixture was added to the quenched NgTet1 reactions (5 μL), and the complete mixture was incubated at room temperature for 1 h. Chemiluminescence was measured on a PHERAstar FS/FSX (BMG Labtech) equipped with an AlphaScreen 680 570 module. All AlphaScreen bead manipulations were performed under subdued lighting. Inhibition data was normalised to reactions containing vehicle only (1% v/v DMSO) and fitted using “log(inhibitor) vs. response—Variable slope (four parameters)” non-linear regression model on GraphPad Prism 5.

[3] = 5HC DNA, NMR, -Log[inhibitor] (M) 3
[4] = 5HC DNA, NMR, -Log[inhibitor] (M) 4
[5] = 5HC DNA, NMR, -Log[inhibitor] (M) 4.5
[6] = 5HC DNA, NMR, -Log[inhibitor] (M) 5
[7] = 5HC DNA, NMR, -Log[inhibitor] (M) 5.5
[8] = 5HC DNA, NMR, -Log[inhibitor] (M) 6
[9] = 5HC DNA, NMR, -Log[inhibitor] (M) 6.5
[10] = 5HC DNA, NMR, -Log[inhibitor] (M) 7
[11] = 5HC DNA, NMR, -Log[inhibitor] (M) 7.5
[12] = IC50, 5mC DNA, NMR, 2OG decarboxylation with 20 µM 5mC DNA
[13] = IC50, No DNA, NMR, uncoupled 2OG decarboxylation, no DNA

SMILES: O=C(O)c1ccnc(C(=O)O)c1 [2,4-PDCA, 2,4-pyridinedicarboxylic acid]
- potency change in the presence of non-substrate 5HC DNA (NgTet1 [1]; 1H NMR): < 2 fold
- IC50 (NgTet1 [1]; 2OG decarboxylation with 20 µM 5HC DNA, read-out: IC50, 5HC DNA, NMR): 4.27 µM
- normalised activity, % (NgTet1 [1]; [3]): -0.17% and 2.97%
- normalised activity, % (NgTet1 [1]; 5HC DNA, NMR, -Log[inhibitor] (M) 3.5): 6.05%
- normalised activity, % (NgTet1 [1]; [4]): 6.05% and 7.57%
- normalised activity, % (NgTet1 [1]; [5]): 13.51%
- normalised activity, % (NgTet1 [1]; [6]): 30.08%
- normalised activity, % (NgTet1 [1]; [7]): 63.79% and 61.71%
- normalised activity, % (NgTet1 [1]; [8]): 84.73% and 86.47%
- normalised activity, % (NgTet1 [1]; [9]): 94.82% and 93.19%
- normalised activity, % (NgTet1 [1]; [10]): 100.33%
- normalised activity, % (NgTet1 [1]; [11]): 99.56% and 98%
- normalised activity, % (NgTet1 [1]; 5mC DNA, NMR, 2,4-PDCA series -Log[inhibitor] (M) 3): 1.811% and 1.747%
- normalised activity, % (NgTet1 [1]; 5mC DNA, NMR, -Log[inhibitor] (M) 3.47712): 1.338% and 1.107%
- normalised activity, % (NgTet1 [1]; 5mC DNA, NMR, -Log[inhibitor] (M) 3.95424): 2.094% and 0.5576%
- normalised activity, % (NgTet1 [1]; 5mC DNA, NMR, -Log[inhibitor] (M) 4.43136): 2.845% and 5.31%
- normalised activity, % (NgTet1 [1]; 5mC DNA, NMR, -Log[inhibitor] (M) 4.90848): 7.1385% and 9.765%
- normalised activity, % (NgTet1 [1]; 5mC DNA, NMR, -Log[inhibitor] (M) 5.38561): 30.9766% and 31.0028%
- normalised activity, % (NgTet1 [1]; 5mC DNA, NMR, -Log[inhibitor] (M) 5.86273): 71.7609% and 72.2416%
- normalised activity, % (NgTet1 [1]; 5mC DNA, NMR, -Log[inhibitor] (M) 6.33985): 92.2674% and 93.2727%
- normalised activity, % (NgTet1 [1]; 5mC DNA, NMR, -Log[inhibitor] (M) 6.81697): 96.6317% and 94.5918%
- normalised activity, % (NgTet1 [1]; 5mC DNA, NMR, -Log[inhibitor] (M) 7.29409): 100.253% and 99.2143%
- IC50 (NgTet1 [1]; [12]): 2.45 µM
- IC50 (NgTet1 [1]; [13]): 8.13 µM
- normalised activity, % (NgTet1 [1]; No DNA, NMR, -Log[inhibitor] (M) 3): 1.858% and 5.513%
- normalised activity, % (NgTet1 [1]; No DNA, NMR, -Log[inhibitor] (M) 3.47712): 5.794% and 4.915%
- normalised activity, % (NgTet1 [1]; No DNA, NMR, -Log[inhibitor] (M) 3.95424): 6.819% and 9.688%
- normalised activity, % (NgTet1 [1]; No DNA, NMR, -Log[inhibitor] (M) 4.43136): 23.271% and 23.2057%
- normalised activity, % (NgTet1 [1]; No DNA, NMR, -Log[inhibitor] (M) 4.90848): 39.7721% and 42.1215%
- normalised activity, % (NgTet1 [1]; No DNA, NMR, -Log[inhibitor] (M) 5.38561): 73.0359% and 62.1963%
- normalised activity, % (NgTet1 [1]; No DNA, NMR, -Log[inhibitor] (M) 5.86273): 95.5986% and 84.3948%
- normalised activity, % (NgTet1 [1]; No DNA, NMR, -Log[inhibitor] (M) 6.33985): 102.544% and 92.4597%
- normalised activity, % (NgTet1 [1]; No DNA, NMR, -Log[inhibitor] (M) 6.81697): 101.45% and 102.432%
- normalised activity, % (NgTet1 [1]; No DNA, NMR, -Log[inhibitor] (M) 7.29409): 100.407% and 97.5514%
- normalised activity, % (NgTet1 [2]; -Log[inhibitor] (M) 8.03235): 118.908% and 105.933% and 106.512% and 100% and 103.458% and 100.779% and 97.3678%
- IC50 (NgTet1 [2]; read-out: IC50, 5mC ssDNA, AS): 3.24 µM

SMILES: O=C(O)c1ccc(O)c2ncccc12 [IOX1, 5-carboxy-8-hydroxyquinoline]
- potency change in the presence of non-substrate 5HC DNA (NgTet1 [1]; 1H NMR): < 2 fold
- normalised activity, % (NgTet1 [1]; [3]): 3.36% and 6.05%
- normalised activity, % (NgTet1 [1]; [4]): 65.88% and 69.85%
- normalised activity, % (NgTet1 [1]; [5]): 102.42% and 107.78%
- normalised activity, % (NgTet1 [1]; [6]): 115.52% and 112.71%
- normalised activity, % (NgTet1 [1]; [7]): 111.12% and 108.5%
- normalised activity, % (NgTet1 [1]; [8]): 104.59% and 105.6%
- normalised activity, % (NgTet1 [1]; [9]): 111.93% and 98%
- normalised activity, % (NgTet1 [1]; [10]): 104.59% and 103.37%
- normalised activity, % (NgTet1 [1]; [11]): 102.45% and 101.86%
- potency decreased relative to AS assay (NgTet1 [1]; 5mC DNA substrate-saturating conditions, 1H NMR): 5 fold
- IC50 (NgTet1 [1]; IC50, 5HC DNA, NMR, 2OG decarboxylation with 20 µM 5HC DNA): 110 µM
- IC50 (NgTet1 [1]; [12]): 123 µM
- IC50 (NgTet1 [1]; [13]): 57.5 µM
- IC50 (NgTet1 [2]): 26.3 µM
- normalised activity, % (NgTet1 [2]; -Log[inhibitor] (M) 4.00432): -0.5677% and -0.5665% and -1.091%
- normalised activity, % (NgTet1 [2]; -Log[inhibitor] (M) 4.5272): 43.4249% and 52.8284% and 51.0837%
- normalised activity, % (NgTet1 [2]; -Log[inhibitor] (M) 5.00432): 78.4888% and 85.3739% and 75.186%
- normalised activity, % (NgTet1 [2]; -Log[inhibitor] (M) 5.60638): 80.6565% and 92.476% and 89.0303%
- normalised activity, % (NgTet1 [2]; -Log[inhibitor] (M) 6.0945): 91.4843% and 93.7065% and 96.6507%
- normalised activity, % (NgTet1 [2]; -Log[inhibitor] (M) 6.61738): 100.743% and 110.536% and 100.94%
- normalised activity, % (NgTet1 [2]; -Log[inhibitor] (M) 7.0945): 88.4496% and 111.251% and 97.2074%
- normalised activity, % (NgTet1 [2]; -Log[inhibitor] (M) 7.69656): 87.9129% and 106.34% and 94.3692%
- normalised activity, % (NgTet1 [2]; -Log[inhibitor] (M) 8.20844): 99.4426% and 116.115% and 101.926%
- normalised activity, % (NgTet1 [2]; -Log[inhibitor] (M) 8.73132): 100% and 102.574%
